In test [1] the test system is C26 murine colon carcinoma. The experiment in a line: Tumor growth inhibition, effect of tumor size (time of injection), C26 model. Type of test: in vivo, Balb/c mice. Here is the method: (§1) FIG. 3: Effect of tumor size on anti-tumor effects of free or liposomal PLP in B16- or C26-bearing mice. Mice received either single or multiple injections with 20 mg/kg PLP of the indicated formulations. Arrows indicate treatment. Mean±S.D. is reported. N=5 mice/experimental group; and
(§2) B16 murine melanoma and C26 murine colon carcinoma cells were cultured at 37° C. in a 5% CO2-containing humidified atmosphere in DMEM medium (Gibco, Breda, The Netherlands) containing 10% (v/v) fetal calf serum supplemented with 2 mM L-glutamine, 100 IU/ml penicillin, 100 μg/ml streptomycin and 0.25 μg/ml amphotericin B (Gibco).
(§3) As a reference, B16F10 tumors became palpable around seven days and C26 tumors around eleven days after tumor cell inoculation. Tumor size was measured regularly and tumor volume was calculated as described above.
(§4) To determine the effect of time of injection of free or liposomal PLP on tumor growth inhibition, the formulations were injected at a dose of 20 mg/kg at day 1, 7 and 14 or single injection at day 7 or day 14. See, in this light, FIG. 3 showing the results.

The subject of test [2] is C26 murine colon carcinoma. The experiment in a line: Tumor growth inhibition, effect of dose, C26 model. Type of test: in vivo, Balb/c mice. As to conditions: 20 mg/kg or 50 mg/kg, single injection; one week later. As for the experimental part: (§5) FIG. 2: Effect of dose of free or liposomal PLP on tumor growth in B16- or C26-bearing mice. Mice received a single injection with the indicated dose and formulation of PLP on the day tumors became palpable. Tumor volume one week later is reported. Mean±S.D. N=5 mice/experimental group;
as §2
(§6) Tissue distribution of ^111In-labeled PEG liposomes in tumor-bearing mice. 1×10^5 B 16 or C26 cells were inoculated subcutaneously in the flank of C57B1/6 of Balb/c mice, respectively. […] At 6 hours and 24 hours after injection, animals were sacrificed, a blood sample was taken, and tumor, lung, liver, spleen and kidneys were dissected, weighed and radioactivity was counted. […]
(§7) Mice received a single intravenous injection of an indicated dose of free PLP or liposomal PLP at the time when the tumor became palpable. At seven days after treatment, tumor size was measured and tumor volume calculated according to the equation V=0.52×a^2×b, wherein a is the smallest and b is the largest superficial diameter.

Test [3] relates to B16 murine melanoma. The experiment in a line: Tumor growth inhibition, effect of dose, B16 model. The format is in vivo, C57B1/6 mice. As to conditions: 20 mg/kg or 50 mg/kg, single injection; one week later. Here is the method:
as §5, §2, §6, §7

Test [4] concerns B16 murine melanoma. The experiment in a line: Tumor growth inhibition, effect of tumor size (time of injection), B16 model. The format is in vivo, C57B1/6 mice. As for the experimental part:
as §1, §2, §3, §4

[5] abbreviates: single injection 20 mg/kg at day 7.

Turning to “prednisolone disodium phosphate [free PLP]”, the “tumor growth inhibition between day 1 and day 7” value (in test [1] (20 mg/kg i.v. at day 1); in the test on B16 murine melanoma [4] (20 mg/kg i.v. at day 1)) was “Neither liposomal PLP nor free PLP inhibited tumor growth” in each case. For the same substance, the “tumor growth inhibition, multiple injections” value in test [1] (20 mg/kg i.v. at day 1, 7 and 14) is given as “did not inhibit tumor growth”. The “significance of tumor volume compared to controls” value in test [1] (setting [5]) was “not significantly smaller with either treatment”. Besides, the “tumor volume compared to buffer-treated control animals” value (in test [2]; with B16 murine melanoma [3]) was “did not result in significantly different tumor volumes” throughout. Besides, the “tumor growth inhibition as compared to controls, between day 7 and day 14” value with B16 murine melanoma [4] (20 mg/kg i.v. at day 1 and second injection at day 7, p<0.05) was “did not reduce tumor volume”. The “significantly smaller tumor volume after single injection” value in the test on B16 murine melanoma [4] (setting [5]) is on record as “only seen after treatment with liposomal PLP”.

For the origin of these results see patent US20050202078A1, “Vesicle-encapsulated corticosteroids for the treatment of cancer” (priority 2002, published 2005).
